Series [1] has as its system A549. The series is described as follows: Induction of cell cycle arrest in human A549 cells assessed as accumulation of cells at G0/G1 phase at 0.1 uM for 24 hrs by Click-iT EdU Alexa Fluor 647 flow cytometric assay kit analysis (reference value: 61%). The series is classed as functional.
Series [2] relates to DV-90. Kind of series: Induction of cell cycle arrest in human DV-90 cells assessed as accumulation of cells at G2/M phase at 1 uM for 24 hrs by Click-iT EdU Alexa Fluor 647 flow cytometric assay kit analysis (reference value: 24%). The class given is functional.
Series [3] relates to DV-90. The series is described as follows: Induction of cell cycle arrest in human DV-90 cells assessed as accumulation of cells at G0/G1 phase at 0.5 uM for 24 hrs by Click-iT EdU Alexa Fluor 647 flow cytometric assay kit analysis (reference value: 44%). The class given is functional.
In series [4] the test system is DV-90. Kind of series: Induction of cell cycle arrest in human DV-90 cells assessed as accumulation of cells at G0/G1 phase at 0.1 uM for 24 hrs by Click-iT EdU Alexa Fluor 647 flow cytometric assay kit analysis (reference value: 44%). The series is classed as functional.
Series [5] has as its system NCI-H1373. Kind of series: Induction of cell cycle arrest in human NCI-H1373 cells assessed as accumulation of cells at G2/M phase at 1 uM for 24 hrs by Click-iT EdU Alexa Fluor 647 flow cytometric assay kit analysis (reference value: 13%). The series is classed as functional. (In general: Flow cytometry measures light scatter and fluorescence of single cells or particles in a stream.)

Series [6] deals with DV-90. The series is described as follows: Induction of apoptosis in human DV-90 cells assessed as late apoptotic cells at 2.5 uM for 24 hrs by annexin V-PI staining based flow cytometric analysis (reference value: 11.4%). The series is classed as functional.
Series [7] deals with DV-90. The series is described as follows: Downregulation of FLIP gene in human DV-90 cells after 24 hrs by microarray profiling analysis. The series is classed as functional, cell-based.
Series [8] relates to NCI-H1373. Kind of series: Downregulation of c-MYC protein level in human NCI-H1373 cells upto 24 hrs by Western blot analysis. As to conditions: dose 100-5000 nM. The class given is functional, cell-based. For orientation: A western blot detects proteins with antibodies after separation by electrophoresis.
The test system of series [9] is NCI-H1373. Kind of series: Downregulation of c-MYC mRNA expression level in human NCI-H1373 cells at 0.1 to 1 uM for 24 hrs by qRT-PCR analysis. The series is classed as functional, cell-based. The note with it: dose 0.1-1 µM.
Series [10] deals with NCI-H441. The series is described as follows: Downregulation of c-MYC mRNA expression level in human NCI-H441 cells at 0.1 to 1 uM for 24 hrs by qRT-PCR analysis. The series is classed as functional, cell-based. As to conditions: dose 0.1-1 µM. In general terms: Quantitative PCR measures a nucleic acid by following its amplification.
Series [11] has as its system NCI-H441. Kind of series: Downregulation of XIAP mRNA expression level in human NCI-H441 cells at 0.1 to 1 uM for 24 hrs by qRT-PCR analysis. The series is classed as functional, cell-based. The note with it: dose 0.1-1 µM.
For series [12], the system named is NCI-H1373. Kind of series: Downregulation of FLIP mRNA expression level in human NCI-H1373 cells at 0.1 to 1 uM for 24 hrs by qRT-PCR analysis. The series is classed as functional, cell-based. As to conditions: dose 0.1-1 µM.
The test system of series [13] is NCI-H1373. The series is described as follows: Downregulation of XIAP protein expression level in human NCI-H1373 cells at 1 uM for 24 hrs by […] analysis. The series is classed as functional, cell-based.
The test system of a further series is LCLC-97TM1. The series is described as follows: Downregulation of XIAP protein expression level in human LCLC-97TM1 cells at 1 uM for 24 hrs by […] analysis. The class given is functional, cell-based.
Another series deals with NCI-H23. Kind of series: Downregulation of XIAP protein expression level in human NCI-H23 cells at 1 uM for 24 hrs by […] analysis. The series is classed as functional, cell-based.
Series [14] has as its system NCI-H2030. Kind of series: Downregulation of XIAP protein expression level in human NCI-H2030 cells at 1 uM for 24 hrs by […] analysis. The series is classed as functional, cell-based.
The test system of series [15] is DV-90. Kind of series: Downregulation of c-MYC protein expression level in human DV-90 cells at 1 uM for 24 hrs by […] analysis. The class given is functional, cell-based.
In series [16] the test system is NCI-H1373. The series is described as follows: Downregulation of c-MYC protein expression level in human NCI-H1373 cells at 1 uM for 24 hrs by […] analysis. The class given is functional, cell-based.
Series [17] relates to NCI-H460. The series is described as follows: Downregulation of c-MYC protein expression level in human NCI-H460 cells at 1 uM for 24 hrs by […] analysis. The class given is functional, cell-based.
The subject of series [18] is NCI-H1373. The series is described as follows: Induction of TRAIL dependent apoptosis in human NCI-H1373 cells by annexin V-PI staining based flow cytometric analysis. The class given is functional, cell-based.
The test system of series [19] is NCI-H460. Kind of series: Antiproliferative activity against human NCI-H460 cells at 500 to 2500 nM in presence of TNF by cell titre glo assay. The class given is functional, cell-based. As to conditions: dose 500-2500 nM.
Series [20] relates to NCI-H2030. The series is described as follows: Antiproliferative activity against human NCI-H2030 cells at 500 to 2500 nM in presence of TNF by cell titre glo assay. The class given is functional, cell-based. As to conditions: dose 500-2500 nM.
In another series the test system is HFF-1. The series is described as follows: Cytotoxicity against HFF-1 cells at 500 to 2500 nM in presence of TNF by cell titre glo assay. The class given is toxicity, cell-based. The note with it: human, hff-1, 2.5 µM; dose 500-2500 nM.
For series [21], the system named is A549. The series is described as follows: Induction of apoptosis in human A549 cells assessed as early apoptotic cells at 1 uM by annexin V-PI based flow cytometric analysis (reference value: 0.2%). The series is classed as functional.
For series [22], the system named is A549. The series is described as follows: Induction of apoptosis in human A549 cells assessed as necrotic cells at 1 uM by annexin V-PI based flow cytometric analysis (reference value: 1.6%). The series is classed as functional.
Series [23] is described as follows: Toxicity in SCID mouse xenografted with human A549 cells assessed as body weight loss administered at 50 mg/kg, ip for 28 days relative to control. The series is classed as organism-based. As to conditions: in vivo, 672 h, time 28 day.
A short description of series [24]: Toxicity in SCID mouse xenografted with human A549 cells assessed as body weight loss administered at 80 mg/kg, ip for 7 days along with cisplatin for 5 days follwed by compound treatment for 14 days relative to control. The class given is organism-based. The note with it: in vivo, 672 h, time 28 day.
For series [25], the system named is DV-90. Kind of series: Induction of cell cycle arrest in human DV-90 cells assessed as accumulation of cells at G0/G1 phase at 0.1 uM for 24 hrs by Click-iT EdU Alexa Fluor 647 flow cytometric assay kit analysis (reference value: 47%). The series is classed as functional.
The test system of series [26] is DV-90. Kind of series: Induction of cell cycle arrest in human DV-90 cells assessed as accumulation of cells at G2/M phase at 1 uM for 24 hrs by Click-iT EdU Alexa Fluor 647 flow cytometric assay kit analysis (reference value: 21%). The class given is functional.
For series [27], the system named is NCI-H460. The series is described as follows: Induction of apoptosis in human NCI-H460 cells assessed as early apoptotic cells at 0.5 uM for 24 hrs by annexin V-PI staining based flow cytometric analysis (reference value: 0.3%). The class given is functional.
Series [28] has as its system DV-90. The series is described as follows: Induction of cell cycle arrest in human DV-90 cells assessed as accumulation of cells at G0/G1 phase at 0.1 uM for 24 hrs by Click-iT EdU Alexa Fluor 647 flow cytometric assay kit analysis (reference value: 45%). The class given is functional.
Series [29] has as its system DV-90. The series is described as follows: Induction of cell cycle arrest in human DV-90 cells assessed as accumulation of cells at S phase at 0.25 uM for 24 hrs by Click-iT EdU Alexa Fluor 647 flow cytometric assay kit analysis (reference value: 30%). The series is classed as functional.
In series [30] the test system is NCI-H1373. Kind of series: Induction of cell cycle arrest in human NCI-H1373 cells assessed as accumulation of cells at G0/G1 phase at 0.1 uM for 24 hrs by Click-iT EdU Alexa Fluor 647 flow cytometric assay kit analysis (reference value: 45%). The class given is functional.
Series [31] relates to NCI-H1373. Kind of series: Induction of cell cycle arrest in human NCI-H1373 cells assessed as accumulation of cells at G0/G1 phase at 0.5 uM for 24 hrs by Click-iT EdU Alexa Fluor 647 flow cytometric assay kit analysis (reference value: 45%). The series is classed as functional.

Activity calls are given as the source filed them. The calls are words filed in the database; no cut-off is given here.

Usually T/C stands for the ratio of treated to control. `Cc1sc2c(c1C)C(c1ccc(Cl)cc1)=N[C@@H](CC(=O)OC(C)(C)C)c1nnc(C)n1-2`: the Activity with A549 [1] is recorded as 61%; with DV-90 [2] it was 27%; with DV-90 [3], 51%; in the series with DV-90 [4], 41%; with NCI-H1373 [5], 21%; with DV-90 [6], 16%. The Activity entry in the series on NCI-H1373 [8] is “Dose-Dependent Effect”; in the series on HFF-1 it was “Non-Toxic”; with A549 [21] it was 0.1%; in the series on A549 [22], 0.6%; in series [23], 5%. The result in the series on DV-90 [7], with NCI-H1373 [9], in the series with NCI-H441 [10], in the series with NCI-H441 [11], in the series with NCI-H1373 [12] and with NCI-H1373 [13] was Active. In addition, the result in the series on LCLC-97TM1, in the series with NCI-H23, in the series with NCI-H2030 [14], in the series on DV-90 [15], in the series on NCI-H1373 [16] and with NCI-H460 [17] was Active. Moreover, the outcome in the series with NCI-H1373 [18], with NCI-H460 [19] and in the series with NCI-H2030 [20] was Active. Also, in series [24], the T/C worked out at 10%.

For the compound `Cc1sc2c(c1C)C(c1ccc(Cl)cc1)=N[C@@H](CC(=O)Nc1ccc(O)cc1)c1nnc(C)n1-2` [BIRABRESIB], the Activity in the series with DV-90 [25] was found to be 50%; in the series on DV-90 [26], 22%; in the series with NCI-H460 [27] it was 0.2%.

Consider `CCNC(=O)C[C@@H]1N=C(c2ccc(Cl)cc2)c2cc(OC)ccc2-n2c(C)nnc21` [MOLIBRESIB], for which the Activity in the series with DV-90 [28] came to 46%; with DV-90 [29], 22%; in the series on NCI-H1373 [30] it was 46%; in the series on NCI-H1373 [31], 47%.

Values taken from ChEMBL document CHEMBL5712891, “Inhibition of BET bromodomain-dependent XIAP and FLIP expression sensitizes KRAS-mutated NSCLC to pro-apoptotic agents” (Cell Death Dis, 2016).
